# Source: article PMC11139994, “Inflammation causes insulin resistance in mice via interferon regulatory factor 3 (IRF3)-mediated reduction in FAHFA levels” (Nature Communications, 2024)
# How the values were obtained:
# [1] = target: T1, AIG1 (androgen induced gene 1) (Mus musculus, UniProt Q9D8B1); assay: competitive gel-based ABPP (FP-Rh) in mouse brain membrane proteome; also MS-based ABPP and in vivo target engagement; format: biochemical
# T1 construct: endogenous AIG1 in mouse brain membrane proteome
# T1 sequence (Q9D8B1 1-238): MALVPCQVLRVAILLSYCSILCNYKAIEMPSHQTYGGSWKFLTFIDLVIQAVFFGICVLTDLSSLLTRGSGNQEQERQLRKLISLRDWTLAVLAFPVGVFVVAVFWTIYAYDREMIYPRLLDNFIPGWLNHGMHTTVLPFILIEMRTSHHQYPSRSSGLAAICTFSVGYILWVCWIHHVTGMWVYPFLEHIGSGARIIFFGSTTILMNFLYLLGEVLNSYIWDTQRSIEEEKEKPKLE
# ABHD6 = target: T2, ABHD6 (Mus musculus, UniProt Q8R2Y0); assay: competitive MS-based ABPP-ReDiMe (FP-biotin) in mouse brain proteome (off-target); format: cell-based
# T2 construct: endogenous ABHD6 in mouse brain proteome
# T2 sequence (Q8R2Y0 1-336): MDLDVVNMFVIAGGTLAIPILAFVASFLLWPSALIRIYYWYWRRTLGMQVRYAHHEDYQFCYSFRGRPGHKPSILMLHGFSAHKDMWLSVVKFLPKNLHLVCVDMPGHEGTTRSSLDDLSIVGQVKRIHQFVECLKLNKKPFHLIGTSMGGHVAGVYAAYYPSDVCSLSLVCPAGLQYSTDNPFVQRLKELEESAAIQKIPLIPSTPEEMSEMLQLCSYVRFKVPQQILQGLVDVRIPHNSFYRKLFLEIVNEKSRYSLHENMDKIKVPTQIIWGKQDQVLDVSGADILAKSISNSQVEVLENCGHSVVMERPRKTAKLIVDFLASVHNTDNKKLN
smiles,measurement,setting,value
"CN(c1ccn(C(=O)N2CCc3ccc(Oc4ccccc4)cc3C2)n1)S(C)(=O)=O [ABD-110, N-methyl-N-(1-(7-phenoxy-1,2,3,4-tetrahydroisoquinoline-2-carbonyl)-1H-pyrazol-3-yl)methanesulfonamide]",IC50,[1],1.6 nM
same,competitive MS-based ABPP-ReDiMe (FP-biotin) in mouse brain proteome (off-target),ABHD6,"with only a few off-targets detected, including ABHD6 and several highly homologous, mouse-specific carboxylesterases (CESs)"
